{"source": "patent US7745439B2", "about": "“Indene derivatives and process for the preparation thereof” (Korea Research Institute of Chemical Technology, priority 2004, dated 2010)", "key": {"[1]": {"system": "C57/BL6J mice", "assay": "Adverse side effects check (weight, heart weight, liver weight, GPT/GOT) in high fat diet C57/BL6J mice", "conditions": "for GOT / GPT / Heart Weight / Liver Weight / Weight: high fat diet C57/BL6J mice", "method": "(§2) To check possible adverse side effects caused by the administration of the compound, the weight, heart weight and liver weight of each mouse were measured. GPT and GOT values were also calculated by employing a kit available in the market."}, "[2]": {"molecular_target": "T1, human PPARγ (Homo sapiens, UniProt P37231)", "T1 construct": "expressed in transfected cells; host or cells: NIH/3T3", "T1 sequence (P37231 238-503 limits assumed)": "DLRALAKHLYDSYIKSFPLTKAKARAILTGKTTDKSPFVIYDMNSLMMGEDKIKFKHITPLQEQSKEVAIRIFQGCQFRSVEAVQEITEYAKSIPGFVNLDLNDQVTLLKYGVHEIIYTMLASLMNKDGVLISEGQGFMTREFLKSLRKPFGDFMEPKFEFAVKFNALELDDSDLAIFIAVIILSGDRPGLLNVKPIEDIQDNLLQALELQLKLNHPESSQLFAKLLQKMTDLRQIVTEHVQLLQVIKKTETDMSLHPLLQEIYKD", "assay": "PPARγ activation test (GAL-4/luciferase reporter in NIH/3T3 cell)", "type": "cell-based", "conditions": "luciferase activity, 24 hrs incubation", "procedure": "The activity for PPARγ activation was examined as follows.\nThe vector fused with ligand binding domain of a human PPARγ gene and DNA binding site of a yeast GAL-4 gene, and luciferase reporter vector were simultaneously transfected in NIH/3T3 cell. The cells were cultured for 24 hrs. The solution containing the cells at a concentration of 2×10^4 cells/well was placed on a 96-well plate. Then, each of the test compounds of the present invention and the control group without test compounds was added thereto. After incubating for 24 hrs, the cells were subjected to lysis."}, "[3]": {"system": "C57/BL6J mice", "method": "as §2"}, "[4]": {"system": "ob/ob mice", "conditions": "relative to control", "procedure": "The effectiveness in lowering blood glucose level of the inventive compound was examined using ob/ob mice (male, 8-9 week old), a type 2 diabetes model animals which expresses signs of hyperglycemia and hyperinsulinemia, bred in house facilities of Korea Research Institute of Chemical Technology.\n(§1) The resulting solution was intraperitoneally administered to the mice at a dose of 50 mg/kg, once a day for 5 days, or orally administered to the mice, at a dose of 100 mg/kg, twice a day for 14 days. Days 1, 3 and 5 were selected for intraperitoneal administration, and days 5, 10 and 14, for oral administration, to collect blood samples for measuring the blood glucose levels. […] Upon the completion of the oral administration for 14 days, the mice were fasted for 16 hrs to perform OGTT (Oral Glucose Tolerance Test) to determine the changes in insulin sensitivity induced by the oral administration. After administrating glucose to the mice at a dose of 2 g/kg orally, blood samples were collected at 0, 15, 30 60 and 120 minutes to measure blood glucose levels."}, "[5]": {"system": "C57/BL6J mice", "conditions": "high fat diet C57/BL6J mice, after oral administration for 14 days once a day", "procedure": "as §1"}, "[6]": {"system": "ob/ob mice", "conditions": "total amount of blood glucose over 120 minutes after glucose 2 g/kg orally, after 14 days oral administration", "procedure": "as §1"}, "[7]": {"conditions": "high fat diet C57/BL6J mice, oral administration for 14 days once a day"}}, "note": "Like-named read-outs stand apart in the source and are kept apart here."}
{"smiles": "CN(CCOc1ccc(CC2SC(=O)NC2=O)cc1)c1ccccn1", "note": "(centres unmarked) [Rosiglitazone, reference compound]", "values": [{"measurement": "GOT", "setting": "[1]", "result": "40 ± 7.1", "unit": "karmen"}, {"measurement": "GPT", "setting": "[1]", "result": "79 ± 8.3/ karmen"}, {"measurement": "Heart Weight", "setting": "[1]", "result": "0.133 ± 0.004", "unit": "g"}, {"measurement": "Liver Weight", "setting": "[1]", "result": "1.35 ± 0.14", "unit": "g"}, {"measurement": "Weight", "setting": "[1]", "result": "40 ± 1.6", "unit": "g"}]}
{"smiles": "CCOC(=O)C1=C(c2ccccc2)c2ccc(OC)cc2C1OCC", "note": "(centres unmarked) [Compound 19, 1-ethoxy-6-methoxy-3-phenyl-1H-indene-2-carboxylic acid ethyl ester]", "values": [{"measurement": "EC50", "setting": "[2]", "result": 20, "unit": "nM"}]}
{"smiles": "CCOC(=O)C1=C(c2ccccc2)c2ccc(OCCN3CCOCC3)cc2C1(O)c1ccccc1", "note": "(centres unmarked) [The Inventive Compound, 1-hydroxy-6-(2-morpholine-4-yl-ethoxy)-1,3-diphenyl-1H-indene-2-carbo-xylic acid ethyl ester]", "values": [{"measurement": "Effect in lowering blood glucose and insulin levels (summary in words)", "setting": "[3]; administered orally or intraperitoneally, Tables 6, 7 and 8", "result": "excellent effect in lowering both blood glucose and insulin levels"}, {"measurement": "Inhibition Ratio (%), Blood Insulin level", "setting": "[3]; [7]", "result": 44.6, "unit": "%"}, {"measurement": "Inhibition Ratio (%), Blood glucose level", "setting": "[3]; [7]", "result": 30.0, "unit": "%"}, {"measurement": "Extent of Inhibition (%) of blood glucose level", "setting": "[4]; Intraperitoneal Administration (50 mg/kg/day), once a day for 5 days", "result": 32.0, "unit": "%"}, {"measurement": "Extent of Inhibition (%) of blood glucose level", "setting": "[4]; Oral Administration (100 mg/kg/day), 14 days", "result": 23.7, "unit": "%"}, {"measurement": "Inhibition Ratio (%), Oral Glucose Tolerance Test (Glucose)", "setting": "[5]", "result": 23.8, "unit": "%"}, {"measurement": "Inhibition Ratio (%), Oral Glucose Tolerance Test (Insulin)", "setting": "[5]", "result": 56.2, "unit": "%"}, {"measurement": "Extent of Inhibition (%), Oral Glucose Tolerance Test (Blood Glucose)", "setting": "[6]", "result": 10.2, "unit": "%"}, {"measurement": "Side effects (summary in words)", "setting": "[1]; administered orally or intraperitoneally", "result": "no side effects such as weight gain, hepatotoxicity or cardiotoxicity"}, {"measurement": "GOT", "setting": "[1]", "result": "35 ± 6.2", "unit": "karmen"}, {"measurement": "GPT", "setting": "[1]", "result": "47 ± 6.5/ karmen"}, {"measurement": "Heart Weight", "setting": "[1]", "result": "0.117 ± 0.012", "unit": "g"}, {"measurement": "Liver Weight", "setting": "[1]", "result": "1.22 ± 0.10", "unit": "g"}, {"measurement": "Weight", "setting": "[1]", "result": "37 ± 2.0", "unit": "g"}]}
{"smiles": "CCOC(=O)C1=C(c2ccccc2)c2ccc(OCCN3CCOCC3)cc2C1(O)c1ccccc1", "note": "(centres unmarked) [Compound 8, 1-hydroxy-6-(2-morpholine-4-yl-ethoxy)-1,3-diphenyl-1H-indene-2-carboxylic acid ethyl ester]", "values": [{"measurement": "EC50", "setting": "[2]", "result": 75, "unit": "nM"}, {"measurement": "melting point", "result": "121 to 123", "unit": "°C"}]}
{"smiles": "COc1ccc2c(c1)C(O)(Cc1ccccc1)C(C(=O)O)=C2c1ccccc1", "note": "(centres unmarked) [Compound 15, 1-benzyl-1-hydroxy-6-methoxy-3-phenyl-1H-indene-2-carboxylic acid]", "values": [{"measurement": "EC50", "setting": "[2]", "result": 230, "unit": "nM"}]}
{"smiles": "CCOC(=O)C1=C(c2ccccc2)c2ccc(OC)cc2C1NC(C)=O", "note": "(centres unmarked) [Compound 24, 1-acetylamino-6-methoxy-3-phenyl-1H-indene-2-carboxylic acid ethyl ester]", "values": [{"measurement": "EC50", "setting": "[2]", "result": 50, "unit": "nM"}]}
{"smiles": "CCOC(=O)C1=C(c2ccccc2)c2ccc(OC)cc2C1NC(=O)CC", "note": "(centres unmarked) [Compound 25, 6-methoxy-3-phenyl-1-propionylamino-1H-indene-2-carboxylic acid ethyl ester]", "values": [{"measurement": "EC50", "setting": "[2]", "result": 12, "unit": "nM"}]}
{"smiles": "N#CC1=C(c2ccccc2)c2ccc(OCCCc3ccccc3)cc2C1(O)c1ccccc1", "note": "(centres unmarked) [Compound 11, 1-hydroxy-1,3-diphenyl-6-(3-phenyl-propoxy)-1H-indene-2-carbonitrile]", "values": [{"measurement": "EC50", "setting": "[2]", "result": 100, "unit": "nM"}]}
{"smiles": "CCOC(=O)C1=C(c2ccccc2)c2ccc(OC)cc2C1OC", "note": "(centres unmarked) [Compound 18, 1,6-dimethoxy-3-phenyl-1H-indene-2-carboxylic acid ethyl ester]", "values": [{"measurement": "EC50", "setting": "[2]", "result": 45, "unit": "nM"}]}
{"smiles": "CCOC(=O)C1=C(c2ccccc2)c2ccc(OC)cc2C1(O)C1CCCCC1", "note": "(centres unmarked) [Compound 6, 1-cyclohexyl-1-hydroxy-6-methoxy-3-phenyl-1H-indene-2-carboxylic acid ethyl ester]", "values": [{"measurement": "EC50", "setting": "[2]", "result": 50, "unit": "nM"}]}
{"smiles": "CCOC(=O)C1=C(c2ccccc2)c2ccc(OC)cc2C1(O)Cc1ccccc1", "note": "(centres unmarked) [Compound 5, 1-benzyl-1-hydroxy-6-methoxy-3-phenyl-1H-indene-2-carboxylic acid ethyl ester]", "values": [{"measurement": "EC50", "setting": "[2]", "result": 95, "unit": "nM"}]}
{"smiles": "CCOC(=O)C1=C(c2ccccc2)c2ccc(OCCCc3ccccc3)cc2C1NC(C)=O", "note": "(centres unmarked) [Compound 26, 1-acetylamino-3-phenyl-6-(3-phenyl-propoxy)-1H-indene-2-carboxylic acid ethyl ester]", "values": [{"measurement": "EC50", "setting": "[2]", "result": 40, "unit": "nM"}]}
{"smiles": "CCOC(=O)C1=C(c2ccccc2)c2ccc(OC)cc2C1(O)C(C)C", "note": "(centres unmarked) [Compound 3, 1-hydroxy-1-isopropyl-6-methoxy-3-phenyl-1H-indene-2-carboxylic acid ethyl ester]", "values": [{"measurement": "EC50", "setting": "[2]", "result": 250, "unit": "nM"}]}
{"smiles": "CCOC(=O)C1=C(c2ccccc2)c2ccc(OC)cc2C1NC1CCCCC1", "note": "(centres unmarked) [Compound 32, 1-cyclohexyl amino-6-methoxy-3-phenyl-1H-indene-2-carboxylic acid ethyl ester]", "values": [{"measurement": "EC50", "setting": "[2]", "result": 250, "unit": "nM"}]}
{"smiles": "CCOC(=O)C1=C(c2ccccc2)c2ccc(OCCc3ccccn3)cc2C1(O)c1ccccc1", "note": "(centres unmarked) [Compound 10, 1-hydroxy-1,3-diphenyl-6-(2-pyridine-2-yl-ethoxy)-1H-indene-2-carboxylic acid ethyl ester]", "values": [{"measurement": "EC50", "setting": "[2]", "result": 150, "unit": "nM"}]}
{"smiles": "CCOC(=O)C1=C(c2ccccc2)c2ccc(OCCCc3ccccc3)cc2C1(O)c1ccccc1", "note": "(centres unmarked) [Compound 7, 1-hydroxy-1,3-diphenyl-6-(3-phenyl-propoxy)-1H-indene-2-carboxylic acid ethyl ester]", "values": [{"measurement": "EC50", "setting": "[2]", "result": 25, "unit": "nM"}]}
{"smiles": "CCOC(=O)C1=C(c2ccccc2)c2ccc(OC)cc2C1(C)O", "note": "(centres unmarked) [Compound 4, 1-hydroxy-6-methoxy-1-methyl-3-phenyl-1H-indene-2-carboxylic acid ethyl ester]", "values": [{"measurement": "EC50", "setting": "[2]", "result": 230, "unit": "nM"}]}
